Assay results from US10961196B2, “Compounds for use as an anti-bacterial or anti-fungal agent and as a zinc sensor” (UNIVERSITÄT KONSTANZ, priority 2016, dated 2021).
Several values for one entry are separate records, joined by “and”; a condition that tells them apart may be missing. Equal values may be shown once.

Columns and labels:
elastase (LasB) [1] = target: T1, elastase (LasB) (Pseudomonas aeruginosa, UniProt Q02RJ6); experiment: In situ inhibition of elastolytic activity (Elastin-Congo Red) with life cultures of P. aeruginosa PA14; assay type: cell-based
T1 construct: 1.4 mL of the culture was centrifuged and the supernatant filtered through a sterile filter; endogenous in cells; host or cells: P. aeruginosa PA14 culture (supernatant)
Experimental: Example 17: In Situ Inhibition of Elastase (LasB) with Compound 6
The in situ efficacy of Compound 6 was investigated by measuring the concentration dependent inhibition of elastolytic activity with life cultures of P. aeruginosa. The elastase assay was performed according to Calfee et al. (M. W. Calfee, J. P. Coleman, E. C. Pesci, Proceedings of the National Academy of Sciences of the United States of America 2001, 98, 11633-11637.) 10 μL of an overnight culture of PA14 was added to 3 mL of PTSB medium together with 15 μL of Compound 6 dissolved in DMSO at different stock concentrations. The culture was incubated for 24 h at 37° C. and 200 rpm. 1.4 mL of the culture was centrifuged and the supernatant filtered through a sterile filter. Thereafter, 0.5 mL ECR-buffer (0.1 M Tris HCl, 1 mM CaCl2, pH=7.2) together with 10 mg Elastin-Congo Red was added to 0.5 ml of the sterile flow-through and the mixture incubated for 3 h at 37° C. and 1600 rpm. After the incubation, 0.1 mL Na2EDTA (0.12 M) was added to quench the enzymatic reaction. After mixing, the solution was centrifuged (10 min at 6000 rpm) and 0.2 mL of the supernatant measured at 495 nm in a 96 well plate. It was observed that Compound 6 is an efficient inhibitor of elastolytic activity in situ resulting in sigmoidal inhibition behaviour with an IC50 of 40 μM (cf. FIG. 9).

S. aureus USA 300 (MRSA) = experiment: Minimum inhibitory concentration (MIC), 96-well plates, serial dilutions in LB medium; assay type: cell-based; conditions: Staphylococcus aureus; S. aureus USA 300 (MRSA), LB medium; read-out: Minimum inhibitory concentration (MIC)
Description: (§1) Example 12: Determination of the Minimum Inhibitory Concentration (MIC) with Non-Pathogenic E. coli and B. subtilis and/or Pathogenic Strains of S. aureus Including Three MRSA Strains (USA 300, Mu50 and DSM18827) as Well as the Pathogenic Fungus Candida albicans
(§2) Minimum inhibitory concentrations (MIC) for compounds 1 to 11 with non-pathogenic E. coli and B. subtilis and/or pathogenic strains of S. aureus including three MRSA strains (USA 300, Mu50 and DSM18827) as well as the pathogenic fungus Candida albicans were determined in 96-well plates with serial dilutions in LB medium.
Example 21: Determination of the Minimum Inhibitory Concentration (MIC) for the Compounds Represented by the Formulas (14) and (16) with the Pathogenic USA 300 (MRSA) Strain of S. aureus
Minimum inhibitory concentrations (MIC) for the compounds represented by the Formulas (14) and (16) with the pathogenic MRSA strains of S. aureus USA 300 were determined in 96-well plates with serial dilutions in LB medium.

[2] = system: S. aureus DSM18827 (MRSA); experiment: as above; assay type: cell-based; conditions: Staphylococcus aureus, DSM 11827 / DSM 18827 / MRSA; S. aureus DSM18827 (also printed DSM11827), MRSA, LB medium; read-out: Minimum inhibitory concentration (MIC)
Description: as §1, §2

B. subtilis = experiment: as above; assay type: cell-based; conditions: Bacillus subtilis; B. subtilis, LB medium; read-out: Minimum inhibitory concentration (MIC)
Description: as §1, §2

S. aureus NCTC 8325 = experiment: as above; assay type: cell-based; conditions: Staphylococcus aureus, NCTC8325; S. aureus NCTC 8325, LB medium; read-out: Minimum inhibitory concentration (MIC)
Description: as §1, §2

Candida albicans = experiment: as above; assay type: cell-based; conditions: C. albicans, LB medium, read-out: Minimum inhibitory concentration (MIC)
Description: as §1, §2

S. aureus Mu50 (MRSA) = experiment: as above; assay type: cell-based; conditions: Staphylococcus aureus; S. aureus Mu50 (MRSA), LB medium; read-out: Minimum inhibitory concentration (MIC)
Description: as §1, §2

elastase (LasB) [3] = target: elastase (LasB) (Pseudomonas aeruginosa, UniProt P14756); experiment: In vitro elastase assay with fluorogenic substrate Abz-peptide-Nba; assay type: biochemical, P. aeruginosa
Experimental: Example 16: In Vitro Inhibition of Elastase (LasB) with Compounds 6, 7, and 12
An in-vitro elastase assay was performed according to Cathcart et al. (G. R. Cathcart, B. F. Gilmore, B. Greer, P. Harriott, B. Walker, Bioorganic & medicinal chemistry letters 2009, 19, 6230-6232). For a typical in vitro elastase assay 82 μL buffer (0.05 M TRIS HCl, 2.5 mM CaCl2, pH=7.2) and 5 μL of compound 6 solved in DMSO were added in a 96 well plate. 10 μL of 3 μg/mL elastase (solved in the same Tris/CaCl2 buffer) were added and mixed with the compound. After incubation for 10 min at room temperature, 3 μL fluorogenic substrate Abz-peptide-Nba (2-aminobenzoyl-Ala-Gly-Leu-Ala-4-nitrobenzylamide) in DMF were added and the fluorescence measured for 90 min in one minute steps (excitation at 330 nm, emission at 460 nm). The slope of the resulting graph was used to calculate the enzymatic activity.

T1 sequence (Q02RJ6 198-498): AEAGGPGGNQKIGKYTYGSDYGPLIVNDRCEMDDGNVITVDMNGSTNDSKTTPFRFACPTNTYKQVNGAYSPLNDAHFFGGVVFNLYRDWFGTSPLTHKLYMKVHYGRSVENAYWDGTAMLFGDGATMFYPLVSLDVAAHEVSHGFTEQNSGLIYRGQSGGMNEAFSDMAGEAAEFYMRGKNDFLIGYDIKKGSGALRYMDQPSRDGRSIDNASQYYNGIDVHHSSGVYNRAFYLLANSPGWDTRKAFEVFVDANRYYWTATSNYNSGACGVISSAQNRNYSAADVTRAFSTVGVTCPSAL
Sequence of elastase (LasB) (Pseudomonas aeruginosa, UniProt P14756) (P14756 198-498): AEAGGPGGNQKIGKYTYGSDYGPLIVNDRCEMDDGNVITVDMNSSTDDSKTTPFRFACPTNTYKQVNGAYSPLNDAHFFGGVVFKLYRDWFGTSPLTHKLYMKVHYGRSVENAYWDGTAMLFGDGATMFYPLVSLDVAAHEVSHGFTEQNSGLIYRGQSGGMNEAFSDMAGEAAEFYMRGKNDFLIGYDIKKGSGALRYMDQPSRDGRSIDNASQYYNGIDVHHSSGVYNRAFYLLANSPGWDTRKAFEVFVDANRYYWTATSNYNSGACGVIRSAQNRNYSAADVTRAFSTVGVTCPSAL

Question: Which IC50 (elastase (LasB) [1]) does the source give for CCCCCCCc1[nH]c2ccccc2c(=S)c1O [Compound 6, 2-heptyl-3-hydroxyquinoline-4(1H)-thione] here?
Answer: 40 µM

Question: What about the MIC (S. aureus USA 300 (MRSA)) of the same compound?
Answer: 150 µM and 41.3 µg/mL

Question: What about the MIC [2] of the same compound?
Answer: 150 µM and 41.3 µg/mL

Question: And the MIC (B. subtilis)?
Answer: 125 µM and 34.4 µg/mL

Question: What about the MIC (S. aureus NCTC 8325) of the same compound?
Answer: 100 µM and 27.5 µg/mL

Question: What about the MIC (Candida albicans) of the same compound?
Answer: 100 µM and 27.5 µg/mL

Question: What about the MIC (S. aureus Mu50 (MRSA)) of the same compound?
Answer: 150 µM and 41.3 µg/mL

Question: And the IC50 (elastase (LasB) [3])?
Answer: 4 µM
